As usually defined, the melting point is the temperature, or range, at which the solid turns liquid.

Molecules are shown by their SMILES.

89 compounds from a melting point compilation (Tetko et al.; mined from patent text by program, amines drawn as free bases though some values may be those of a salt) can be followed below.

In turn, `COc1cc2c(c3c1OC(C)(C)C3)C(c1ccnc(-n3c(=O)ccc4ccccc43)c1)=NC(C)(C)C2` had a melting point of 190 to 191 °C.

The compound `c1ccc2c(c1)C1CC2(CC2CN(CC3CC3)CCO2)c2ccccc21` (centres undefined) displayed a melting point of 88 to 90 °C.

`CNc1nc(-c2cccc(NC(=O)Nc3ccccc3)c2)c2cc(OC)c(OC)cc2n1` registered a melting point of 218 to 220 °C.

With `CC(C)COc1ccc(C(=O)N/C(=C\c2ccc(C(C)C)cc2)C(=O)NCCO)cc1`, the melting point lay within 178 to 180 °C.

Consider `O=C(CCC(=O)N1CCC(N2Cc3ccccc3NC2=O)CC1)c1ccc(Cl)c(Cl)c1`, for which the melting point was in the range of 224 to 226 °C.

With `Nc1ccc(Oc2ncc(Cl)cn2)cc1`, the melting point came out at 125 °C.

Regarding `C[C@H]1C(=O)Nc2ccc(Cl)cc2N1C(=O)OCCBr`, the melting point is 133 to 136 °C.

With `CC(=O)NCCC(=O)NCCO`, the melting point was 122 to 125 °C.

Compound `Fc1ccc(CC2C=CC(OCc3ccccc3)=C3N=C4CCCCC4=C32)cc1` (centres undefined) displayed a melting point of 134 to 135 °C.

Take `CCCCCCCCCCCCCCCCC#CCC(CO)CO`: the melting point is 55 °C.

Compound `CC(O)C(CCCc1ccccc1)n1ncc2c(=O)[nH]c(Cc3ccc(Cl)c(Cl)c3)nc21` (centres undefined) showed a melting point of 161 °C.

Consider `CN(C)CCN(C)C(=O)Oc1ccc(Cl)cc1Cn1nc(-c2ccc(C(F)(F)F)cc2)oc1=O`, for which the melting point was 127 to 129 °C.

Compound `COc1ccc(C[N+](=O)[O-])c(C=CC[N+](=O)[O-])c1OCc1ccccc1` came in with a melting point of 149 to 150 °C.

As for `CC(C)c1cccc2c1OC(C(F)(F)F)C(C(=O)O)=C2` (centres undefined), the melting point was in the range of 210 to 212 °C.

`CC(=O)Nc1cccc(NC(C)=O)c1` had a melting point of 190 to 191 °C.

Turning to `CCOC(=O)CCc1cn(Cc2cc(OCc3ccccc3)cc(OCc3csc(-c4cnccn4)n3)c2)cc1-c1ccccc1`, the melting point was 126 to 127 °C.

As to `CCOC(=O)C(=O)Nc1ccc(C=Cc2ccc3ccccc3n2)cc1`, the melting point was in the range of 160 to 162 °C.

`O=CNc1cccc2c1C(=O)c1c-2n[nH]c1-c1ccncc1` registered a melting point greater than 300 °C.

Take `COC(=O)C(C#N)=C(O)c1cc(F)c(F)c(F)c1F`: the melting point lay in the range of 71 to 73 °C.

For `Clc1cccc(Nc2nnc(-c3ccc4nonc4c3)s2)c1Cl`, the melting point lay within 229 to 231 °C.

The compound `CN1CCC(OC(c2cccc(-c3ccn[nH]3)c2)c2nc3ccccc3s2)CC1` (centres undefined) registered a melting point of 90 °C.

In the case of `Cc1cc(NC(=O)C(C)(O)COc2ccc(OCCBr)cc2)ccc1[N+](=O)[O-]` (centres undefined), the melting point is 135 to 138 °C.

Consider `Fc1ccccc1NC(=S)Nc1ncccc1OCc1c(F)cccc1Cl`, for which the melting point lay in the range of 145 to 147 °C.

Compound `O=c1c(NCCCN(Cc2ccc(F)cc2)c2ccccn2)c(NCc2ccncc2)c1=O` displayed a melting point of 198 to 201 °C.

`COC(=O)c1cc(F)ccc1Nc1ccnc2cc(C(F)(F)F)ccc12` showed a melting point of 174 °C.

In the case of `COC(=O)/C(=C/c1ccc2[nH]ccc2c1)N=[N+]=[N-]`, the melting point fell in the range of 130 to 133 °C.

In the case of `CCCNC(=O)c1cnc2ccccn2c1=O`, the melting point lay in the range of 120 to 122 °C.

Take `CCc1noc(-c2ncc3[nH]c4cccc(CN5CCOCC5)c4c3c2COC)n1`: the melting point was in the range of 161 to 163 °C.

For the compound `CS(=O)(=O)c1ccc(-c2cccn2-c2ccccc2)cc1`, the melting point was 140 to 142 °C.

For `CC1(C)Oc2ccc(Cl)cc2C(NS(C)(=O)=O)C1O` (centres undefined), the melting point fell in the range of 198 to 202 °C.

On to `C#CCOC(C(=O)NCCc1ccc(O)c(OC)c1)c1ccc(Cl)cc1` (centres undefined), for which the melting point was 93 to 95 °C.

`O=S(=O)(c1cn(-c2c(Cl)cc(C(F)(F)F)cc2Cl)c(Cl)n1)C(F)(F)F`: the melting point was 182 °C.

In turn, `Cc1cccnc1NC(=O)Nc1cccc2c1C1CC(O)CCN1C2=O` (centres undefined) came in with a melting point of 204 to 206 °C.

Regarding `COc1cc(C(O)CN)cc(OC)c1OC` (centres undefined), the melting point worked out at 141 °C.

Consider `COc1cc(Nc2c(C#N)cnc3cc(-c4ccc(C(N)=O)cc4)sc23)c(Cl)cc1Cl`, for which the melting point is greater than 300 °C.

Regarding `C[C@H]1C(=O)Nc2ccc(Cl)cc2N1C(=O)Oc1ccc(F)cc1`, the melting point fell in the range of 168 to 170 °C.

`C#CCNC(=O)N1CC(c2cccc(C(F)(F)F)c2)C1` registered a melting point of 121 °C.

Compound `O=C(CC(=O)C1CC1)c1ccc2snnc2c1` gave a melting point of 142 to 144 °C.

On to `CN(CC(=O)O)C(=S)c1cccc2c(Br)cccc12`, for which the melting point was 181 °C.

Compound `CCCc1c(OCc2ccc(CBr)cc2)ccc(C(C)=O)c1O` displayed a melting point of 98 to 99 °C.

`CCC(CC)Nc1ncnc2c1ncn2C` showed a melting point of 107 to 109 °C.

Take `CCn1cc(C(=O)O)c(=O)c2cc(F)c(N3CC4CCC3CN4)c(F)c21` (centres undefined): the melting point lay in the range of 255 to 257 °C.

As to `COC(=O)C(Cl)=C(C)N`, the melting point lay in the range of 68 to 70 °C.

`O=C(CN1C(=O)CC1S(=O)(=O)c1ccccc1)NCCCCCCc1ccc(Cl)cc1` (single isomer, unassigned; (-)) returned a melting point of 106 to 109 °C.

Consider `CC(C)(C)OC(=O)Nc1ccsc1CC(=O)O`, for which the melting point lay in the range of 70 to 72 °C.

`COc1cc(OC)cc(-c2nc[nH]c2-c2ccc(OC(F)F)c(O)c2)c1` had a melting point of 159 to 161 °C.

As for `COC(=O)c1ccc(C(=O)Nc2cc3c4c(c2)CCCC4CCC3)s1`, the melting point is 221 to 222 °C.

The compound `Cc1nn(-c2ccccn2)c2ncc(C(=O)c3ccccc3)c(Cl)c12` returned a melting point of 177 to 178 °C.

In turn, `N#Cc1ccc(-c2ccc(-c3ccc(C#N)cn3)o2)cc1` came in with a melting point of 301 to 302 °C.

Consider `CC(C)c1cc(C(=O)Nc2ccc(C(=O)O)o2)oc1C(C)C`, for which the melting point lay within 169 to 171 °C.

Consider `Clc1ccc2c(c1)-c1nnnn1-c1ccccc1O2`, for which the melting point was 209 to 211 °C.

In the case of `C#CCCC(O)=C(C#N)C(=O)Nc1ccc(C(F)(F)F)cc1`, the melting point came out at 172 °C.

Turning to `Cc1cc2c(cc1C(=O)c1ccc(C(=O)O)cc1)C1(C)C3(C)CCC(C3)C1(C)O2` (centres undefined), the melting point lay within 238 to 239 °C.

Compound `CCOc1cc(Cc2cnc(N)nc2N)cc2c1OC(C)(C)C=C2c1ccncc1` registered a melting point of 223 to 226 °C.

In turn, `COc1ccc(CCC(=O)NCCc2cccc(C)c2)cc1OC` showed a melting point of 100 to 103 °C.

Regarding `CN(C)CCCNCc1ccc(-c2cc3ncnc(Nc4ccc5[nH]ccc5c4)c3s2)cc1`, the melting point lay in the range of 148 to 160 °C.

In the case of `CCNc1ccc(S(=O)c2ccccc2)cc1[N+](=O)[O-]` (centres undefined), the melting point was 122 to 124 °C.

Turning to `COC(=O)Nc1cn2cc(Sc3ccccc3)ccc2n1`, the melting point lay within 247 to 249 °C.

As to `COc1ccc(Sc2cncc3sc(C(N)=O)cc23)cc1`, the melting point lay within 219 to 221 °C.

Compound `CCOC(=O)C(C)(C)n1c(=O)[nH]c2ccsc2c1=O` gave a melting point of 156 to 157 °C.

In turn, `Nc1nc(=O)n(CC2CCCO2)cc1F` (centres undefined) yielded a melting point of 168 to 170 °C.

`COc1cc(C#N)ccc1C(Br)C(Br)C(=O)c1ccc(C#N)cc1` (centres undefined) gave a melting point of 163 to 165 °C.

The compound `COc1ccc(N2CCOCC2)c2sc(C(=O)NC3CCCCC3=O)nc12` (centres undefined) displayed a melting point of 165 °C.

For `O=C1CSC=C2c3ccccc3C=CN12`, the melting point lay in the range of 104 to 106 °C.

On to `CC(C)CCCC(C)C1CCC2C3CC=C4CC(OC(=O)C(C)(C)CO)CCC4(C)C3CCC12C` (centres undefined), for which the melting point was 174 to 176 °C.

`NC(=O)CCCCn1ccc(NC(N)=NCC(F)(F)F)n1` gave a melting point of 130 °C.

In the case of `COc1cc2nc(CN(C)C)[nH]c(=O)c2cc1OC`, the melting point is 210 to 212 °C.

For `O=C(Cn1nnc2ccccc21)Nc1ccc(-n2nc(C3CC3)cc2C2CC2)cc1`, the melting point was in the range of 216 to 220 °C.

The compound `CCNC(=O)c1sc(SC)c2c1CCc1sc(-c3ccccc3)nc1-2` came in with a melting point of 211 to 212 °C.

In turn, `O=C1N(C(c2ccccc2)c2ccccc2)c2ccccc2C12COc1cc(F)c(F)cc12` (centres undefined) displayed a melting point of 213 to 216 °C.

`NC(=O)Cc1cc(Oc2ccc3c(ccn3C(=O)Nc3cc(N4CCOCC4)cc(C(F)(F)F)c3)c2)ncn1` displayed a melting point of 144 to 146 °C.

For the compound `COc1cc2c(cc1OC)CN(CCCNS(=O)(=O)c1cc(Cl)c(F)cc1F)CC2`, the melting point fell in the range of 110 to 112 °C.

For the compound `N#CNC(=O)[C@H](Cc1ccccc1)NC(=O)[C@@H]1CCC(=O)N1`, the melting point lay within 163 to 165 °C.

Consider `O=C(CC(CC1CCCCC1)C(=O)O)c1ccco1` (centres undefined), for which the melting point lay within 91 to 94 °C.

As for `COc1c(C(=O)NCCN2CCN(c3cccc(Cl)c3Cl)CC2)cc(Br)c2ccccc12`, the melting point is 137 °C.

On to `Clc1cc2c(cc1Br)C(=C1CCNCC1)c1ncccc1CO2`, for which the melting point fell in the range of 198 to 199 °C.

`COc1cccc(NC(=O)N2CCc3cc(S(=O)(=O)N4CCN(c5cccc(Cl)c5)CC4)ccc32)c1` yielded a melting point of 199 to 200 °C.

`COc1cc2c(cc1OCC(=O)O)C1Cc3c(Cl)cc(OC)c(OCC(=O)O)c3CN1CC2` (centres undefined) had a melting point of 202 to 204 °C.

Consider `CCn1cc(C(=O)O)c2nc3c(C)cccc3cc2c1=O`, for which the melting point is 251 to 253 °C.

In turn, `COC(=O)C(C(=O)OC)c1cccc2c1NC(=O)C2` had a melting point of 161 to 162 °C.

For the compound `CCCCCCCCOc1ccc(CP(=O)(OC)OC)c2c(CP(=O)(OC)OC)cccc12`, the melting point fell in the range of 51 to 52 °C.

`COc1ccc(-c2cc(C=CC(=O)O)cs2)cc1C(C)(C)C` returned a melting point of 197 to 198 °C.

Turning to `Clc1nc2c([nH]1)CCCCC2`, the melting point is 214 to 215 °C.

The compound `CC1CC(=O)NN=C1c1ccc2c(c1)NCCO2` (centres undefined) yielded a melting point of 166 to 168 °C.

Take `CC(C)Oc1nn(CCO)cc1C(=O)NCc1ccc(C(F)(F)F)cc1`: the melting point fell in the range of 107 to 108 °C.

As for `CN(C)CCCC1(C)CCc2cccc(O)c2O1` (centres undefined), the melting point is 127 to 133 °C.

Turning to `CCCc1nc(CSc2ccc(CCC(=O)O)cc2)c(C(=O)OCC)n1Cc1cc2c(cc1Cl)OCO2`, the melting point amounted to 174 °C.

In turn, `CCN1c2ncc(CCc3ccnc(C)c3)cc2C(=O)N(C)c2ccc(Cl)nc21` yielded a melting point of 94 to 96 °C.

In turn, `O=C(OCc1ccccc1)N1CCC(O)(c2ccc(C(F)(F)F)cc2)CC1` registered a melting point of 102 °C.
